Results from ChEMBL document CHEMBL1201862, “PubChem BioAssay data set” (2004).
Calls of active or inactive are those of the source.

Key:
Cytochrome P450 3A4 [1] = target: T1, Cytochrome P450 3A4 (Homo sapiens, UniProt P08684); details: read-out: Potency;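 also: confirmatory qHTS run detecting inhibitors and substrates of CYP3A4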
Cytochrome P450 3A4 [2] = target: T1, Cytochrome P450 3A4; details: Potency
HEK293 [3] = experiment: cells; assay type: functional, cell-based; details: Homo sapiens
HEK293 [4] = experiment: NOD2 signaling inhibitors in MDP-stimulated cells, cell-based, uHTS, luminescence (AID 2001); assay type: functional; details: Homo sapiens
HEK293 [5] = experiment: inhibition of NOD1-driven NF-kB reporter – cell-based, luminescence, uHTS, primary screen (AID 1578); assay type: functional; details: Homo sapiens
HEK293 [6] = experiment: cells; assay type: functional, cell-based; details: Homo sapiens; remark: listed apart in the source
[7] = target: Serine/threonine-protein phosphatase (Homo sapiens, UniProt Q9BPW0); experiment: Counterscreen for inhibitors of PP1: fluorescence-based biochemical high throughput dose response assay to identify inhibitors of Protein Phosphatase 5 (PP5). [Related pubchem assays: 2034 (Summary (PP5 inhibitors)), 1987 (PP5 inhibitors in singlate), 2235 (PP1 inhibitors in singlate)]
[8] = target: Serine/threonine-protein phosphatase PP1-alpha catalytic subunit (Homo sapiens, UniProt P62136); experiment: inhibition of protein phosphatase 1 activity – biochemical, fluorescence, dose response (AID 2403);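 also: phosphatase turnover of OMFP into fluorescent 3-O-methylfluorescein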
[9] = target: Photoreceptor-specific nuclear receptor (Homo sapiens, UniProt Q9Y5X4); assay type: functional;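 also: potency for compounds that break the NR2E3 corepressor complex and count as activators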
[10] = target: Peroxisome proliferator-activated receptor gamma/Nuclear receptor corepressor 2 (Homo sapiens, UniProt P37231+Q9Y618); assay type: functional
[11] = target: Mothers against decapentaplegic homolog 3 (Homo sapiens, UniProt P84022); experiment: blockers of Smad3 complex formation in lysate – cell lysate, secondary confirmation, chemiluminescent ELISA, HEK293 lysate, dose response (AID 1058); assay type: functional
Vero = experiment: host cell viability loss, Vero E6 – synthesized analogs, cytotoxicity control for West Nile virus antiviral project, SAR follow-up (AID 2244); assay type: functional; details: Chlorocebus sabaeus
[12] = target: Voltage-gated N-type calcium channel alpha-1B subunit/Amyloid beta A4 precursor protein-binding family A member 1 (Homo sapiens, UniProt Q00975+Q02410); experiment: disruptors of Mint-PDZ/N-type channel peptide interaction – biochemical, HTRF, set 2, SAR follow-up (AID 434980); assay type: functional
[13] = target: Melanin-concentrating hormone receptor 1 (Homo sapiens, UniProt Q99705); experiment: Late-stage fluorescence-based counterscreen for antagonists of the G-protein coupled receptor 7 (GPR7): cell-based dose response assay to identify antagonists of the melanin-concentrating hormone receptor 1 (MCHR1). [Related pubchem assays (depositor defined):AID1861, AID1880, AID1952, AID2148, AID2251, AID2257, AID485339]; assay type: functional;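 also: stimulated with 30 nM MCH peptide agonist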
[14] = NIH3T3 cell viability loss – ATP luminescence, mouse fibroblasts, counter-screen, dose response (AID 2010); assay type: functional, cell-based;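 also: cells exposed to compound for about 90 hours before reading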
cells = assay type: functional, cell-based
[15] = alpha-synuclein stem-loop translation blockers – luminescence, H4 neuroglioblastoma cells, dose confirmation, confirmation (AID 2454); assay type: functional, cell-based;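 also: H4 neuroglioblastoma cells carrying an alpha-synuclein 5'UTR luciferase reporter; potency for inhibition of the luciferase signal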
[16] = Luminescence Cell-Based Dose Response HTS to Identify Inhibitors of 5'UTR Stem-Loop Driven Prion Protein mRNA Translation in H4 Neuroglioblastoma Cells. [Related pubchem assays: 1827 (Project Summary), 1813 (Primary HTS)]; assay type: functional
[17] = Trypanosoma cruzi growth suppression in host cells – NIH3T3 host cells, beta-gal luminescence, confirmation (AID 2044); assay type: functional, cell-based;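 also: intracellular parasites grown in NIH/3T3 mouse fibroblasts as host cells; luminescent beta-galactosidase reporter signal from transgenic T. cruzi replicating inside host cells; inhibitors lower the luminescence signal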
[18] = alpha-synuclein stem-loop luciferase translation blockers – H4 neuroglioma cells, luminescence, confirmation (AID 1988); assay type: functional, cell-based
[19] = target: Nucleotide-binding oligomerization domain-containing protein 2 (Homo sapiens, UniProt Q9HC29); experiment: inhibition of NOD2-driven NF-kB reporter – cell-based, luminescence, uHTS, HEK293 (AID 1566); assay type: functional
[20] = luciferase reporter signal reduction – luminescence, H4-C neuroglioblastoma cells, dose response (AID 2458); assay type: functional, cell-based;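 also: H4 neuroglioblastoma cells stably carrying a luciferase reporter gene fusion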
Streptococcus = experiment: GAS UMAA2166 growth inhibition – luminescence, BacTiterGlo, counter-screen for streptokinase expression inhibitor project, dose response (AID 1915); assay type: functional, organism-based;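 also: potency for reduction of bacterial viability or growth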
INS1 = experiment: INS-1E survival protection against cytokine death – cell-based, luminescence, retest, dose response (AID 449756); assay type: functional; details: Rattus norvegicus;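 also: cell death triggered by IL-1 beta plus TNF-alpha plus IFN-gamma mixture; protective hits raise ATP signal compared with cytokine alone wells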
[21] = fluconazole-exposed Candida albicans growth modulators – fluorescence, retest, confirmation (AID 2467); assay type: functional, cell-based
[22] = target: ATP-dependent molecular chaperone HSP82 (Candida albicans (strain WO-1) (Yeast), UniProt C4YTQ8); experiment: steroid-induced GRE reporter decrease in yeast – S. cerevisiae, luminescence, Hsp90 inhibitor project, dose response (AID 2400); assay type: functional, cell-based;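 also: beta-galactosidase luminescence from glucocorticoid response element reporter as proxy for Hsp90 function; inhibitor potency where signal loss means Hsp90 inhibition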
[23] = NIH-3T3 fibroblast cytotoxicity, dose response, cytotoxicity control, cell-based, fluorescence, Alamar Blue, secondary assay (AID 2327); assay type: functional;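 also: NIH-3T3 mouse fibroblasts cultured with fluconazole at 8 µg/mL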
[24] = target: T2, Serine/threonine-protein phosphatase (Candida dubliniensis (strain CD36 / CBS 7987 / NCPF 3949 / NRRLY-17841) (Yeast), UniProt B9W6M3); experiment: blockers of CaCl2-induced CDRE-lacZ signaling – S. cerevisiae, luminescence, secondary, dose response (AID 2388); assay type: functional, cell-based;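 also: yeast reporter cells carrying a calcineurin-responsive lacZ construct stimulated with calcium chloride; luminescent beta-galactosidase reporter signal in whole cells rather than isolated phosphatase activity; potency for inhibition where a drop in reporter signal means calcineurin blockade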
T2 sequence (B9W6M3 whole entry): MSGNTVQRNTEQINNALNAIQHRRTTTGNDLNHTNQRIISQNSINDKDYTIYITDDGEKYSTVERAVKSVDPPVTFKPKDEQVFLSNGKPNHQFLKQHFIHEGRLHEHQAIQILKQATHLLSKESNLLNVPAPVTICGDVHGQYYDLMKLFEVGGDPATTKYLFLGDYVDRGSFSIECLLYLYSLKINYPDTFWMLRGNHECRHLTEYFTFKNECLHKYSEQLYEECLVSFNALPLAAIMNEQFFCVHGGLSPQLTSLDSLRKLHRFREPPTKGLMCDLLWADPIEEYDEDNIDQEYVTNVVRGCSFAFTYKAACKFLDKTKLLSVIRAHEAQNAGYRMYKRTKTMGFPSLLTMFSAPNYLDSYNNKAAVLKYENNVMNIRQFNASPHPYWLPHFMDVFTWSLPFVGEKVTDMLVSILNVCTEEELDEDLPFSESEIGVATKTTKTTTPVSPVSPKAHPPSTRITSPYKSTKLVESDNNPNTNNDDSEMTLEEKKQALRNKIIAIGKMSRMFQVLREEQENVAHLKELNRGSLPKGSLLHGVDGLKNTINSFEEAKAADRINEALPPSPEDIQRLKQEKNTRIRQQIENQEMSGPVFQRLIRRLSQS

[25] = system: Streptococcus sp. 'group A'; experiment: Streptococcus pyogenes SK(-)GAS viability under kanamycin – luminescence, BacTiterGlo, confirmation, counter-screen for streptokinase expression inhibitor project, dose response (AID 1900); assay type: functional, organism-based
HEK293 [26] = experiment: cells; assay type: functional, cell-based; details: Homo sapiens; remark: listed apart in the source
[27] = target: C-C chemokine receptor type 6 (Homo sapiens, UniProt P51684); experiment: antagonism of CCR6 beta-arrestin recruitment – cell-based, luminescent beta-arrestin readout, dose response (AID 504728); assay type: functional
Beta-galactosidase = Beta-galactosidase (Escherichia coli, UniProt Q8VNN2); experiment: detection-enzyme interference by beta-gal modulators – biochemical, E. coli enzyme, set 3, artefact control for CCR6 antagonist project, dose response (AID 504712); assay type: functional

T1 sequence (P08684 whole entry): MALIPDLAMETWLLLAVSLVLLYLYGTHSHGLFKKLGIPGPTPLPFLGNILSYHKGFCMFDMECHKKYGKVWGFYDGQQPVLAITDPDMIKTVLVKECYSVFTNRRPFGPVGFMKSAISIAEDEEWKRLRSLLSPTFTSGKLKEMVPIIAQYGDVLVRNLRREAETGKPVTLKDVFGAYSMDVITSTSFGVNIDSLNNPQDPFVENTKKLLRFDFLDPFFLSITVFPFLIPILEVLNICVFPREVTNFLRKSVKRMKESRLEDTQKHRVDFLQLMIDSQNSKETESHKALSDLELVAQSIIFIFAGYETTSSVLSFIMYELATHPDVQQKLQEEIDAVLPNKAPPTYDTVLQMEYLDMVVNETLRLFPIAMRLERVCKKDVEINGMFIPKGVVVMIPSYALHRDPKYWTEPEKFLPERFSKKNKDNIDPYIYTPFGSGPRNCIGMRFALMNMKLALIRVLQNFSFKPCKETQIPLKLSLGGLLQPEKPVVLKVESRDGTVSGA
Mothers against decapentaplegic homolog 3, sequence (P84022 whole entry): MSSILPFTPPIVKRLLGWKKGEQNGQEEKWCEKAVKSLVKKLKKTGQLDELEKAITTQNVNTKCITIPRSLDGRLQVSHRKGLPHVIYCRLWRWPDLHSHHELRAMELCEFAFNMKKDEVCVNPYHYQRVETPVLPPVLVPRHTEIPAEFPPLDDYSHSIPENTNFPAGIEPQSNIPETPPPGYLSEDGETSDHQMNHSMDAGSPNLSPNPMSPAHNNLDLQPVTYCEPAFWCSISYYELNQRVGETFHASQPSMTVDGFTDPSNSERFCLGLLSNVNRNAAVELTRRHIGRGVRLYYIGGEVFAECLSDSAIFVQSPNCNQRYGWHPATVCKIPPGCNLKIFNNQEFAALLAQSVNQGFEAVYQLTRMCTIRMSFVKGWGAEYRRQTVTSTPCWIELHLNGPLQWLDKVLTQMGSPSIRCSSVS
Melanin-concentrating hormone receptor 1, sequence (Q99705 whole entry): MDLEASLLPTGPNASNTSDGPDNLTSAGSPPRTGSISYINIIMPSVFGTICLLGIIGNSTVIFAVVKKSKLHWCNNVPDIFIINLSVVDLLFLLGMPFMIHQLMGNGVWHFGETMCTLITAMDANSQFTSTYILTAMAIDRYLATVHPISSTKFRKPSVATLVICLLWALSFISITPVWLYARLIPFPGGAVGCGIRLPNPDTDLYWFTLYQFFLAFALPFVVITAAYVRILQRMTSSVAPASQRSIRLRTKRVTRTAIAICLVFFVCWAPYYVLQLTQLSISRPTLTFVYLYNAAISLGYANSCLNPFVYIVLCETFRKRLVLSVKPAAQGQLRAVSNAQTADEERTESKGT
C-C chemokine receptor type 6, sequence (P51684 whole entry): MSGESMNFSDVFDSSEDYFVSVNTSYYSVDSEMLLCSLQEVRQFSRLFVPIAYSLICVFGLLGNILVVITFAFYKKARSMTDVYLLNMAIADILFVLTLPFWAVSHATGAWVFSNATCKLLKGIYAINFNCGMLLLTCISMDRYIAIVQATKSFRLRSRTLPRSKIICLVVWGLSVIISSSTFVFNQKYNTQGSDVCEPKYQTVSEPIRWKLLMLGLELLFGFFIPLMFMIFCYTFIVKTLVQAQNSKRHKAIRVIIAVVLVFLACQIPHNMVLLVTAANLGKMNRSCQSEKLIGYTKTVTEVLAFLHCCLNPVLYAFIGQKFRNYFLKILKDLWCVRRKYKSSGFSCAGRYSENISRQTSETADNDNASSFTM
Peroxisome proliferator-activated receptor gamma/Nuclear receptor corepressor 2, sequence (P37231 whole entry): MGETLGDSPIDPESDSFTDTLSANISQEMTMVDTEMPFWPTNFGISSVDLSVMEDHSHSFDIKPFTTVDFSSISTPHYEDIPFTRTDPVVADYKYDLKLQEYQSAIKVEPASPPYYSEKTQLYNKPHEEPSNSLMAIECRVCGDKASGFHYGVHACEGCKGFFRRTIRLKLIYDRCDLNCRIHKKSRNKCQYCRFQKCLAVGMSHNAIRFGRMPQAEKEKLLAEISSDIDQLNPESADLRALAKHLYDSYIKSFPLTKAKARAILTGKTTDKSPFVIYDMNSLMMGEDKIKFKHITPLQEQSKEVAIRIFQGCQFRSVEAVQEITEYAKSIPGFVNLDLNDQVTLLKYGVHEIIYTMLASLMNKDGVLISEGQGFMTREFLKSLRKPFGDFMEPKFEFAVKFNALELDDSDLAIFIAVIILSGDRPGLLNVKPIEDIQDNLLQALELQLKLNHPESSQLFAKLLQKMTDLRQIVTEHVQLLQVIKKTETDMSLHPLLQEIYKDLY
Peroxisome proliferator-activated receptor gamma/Nuclear receptor corepressor 2, sequence (Q9Y618 whole entry): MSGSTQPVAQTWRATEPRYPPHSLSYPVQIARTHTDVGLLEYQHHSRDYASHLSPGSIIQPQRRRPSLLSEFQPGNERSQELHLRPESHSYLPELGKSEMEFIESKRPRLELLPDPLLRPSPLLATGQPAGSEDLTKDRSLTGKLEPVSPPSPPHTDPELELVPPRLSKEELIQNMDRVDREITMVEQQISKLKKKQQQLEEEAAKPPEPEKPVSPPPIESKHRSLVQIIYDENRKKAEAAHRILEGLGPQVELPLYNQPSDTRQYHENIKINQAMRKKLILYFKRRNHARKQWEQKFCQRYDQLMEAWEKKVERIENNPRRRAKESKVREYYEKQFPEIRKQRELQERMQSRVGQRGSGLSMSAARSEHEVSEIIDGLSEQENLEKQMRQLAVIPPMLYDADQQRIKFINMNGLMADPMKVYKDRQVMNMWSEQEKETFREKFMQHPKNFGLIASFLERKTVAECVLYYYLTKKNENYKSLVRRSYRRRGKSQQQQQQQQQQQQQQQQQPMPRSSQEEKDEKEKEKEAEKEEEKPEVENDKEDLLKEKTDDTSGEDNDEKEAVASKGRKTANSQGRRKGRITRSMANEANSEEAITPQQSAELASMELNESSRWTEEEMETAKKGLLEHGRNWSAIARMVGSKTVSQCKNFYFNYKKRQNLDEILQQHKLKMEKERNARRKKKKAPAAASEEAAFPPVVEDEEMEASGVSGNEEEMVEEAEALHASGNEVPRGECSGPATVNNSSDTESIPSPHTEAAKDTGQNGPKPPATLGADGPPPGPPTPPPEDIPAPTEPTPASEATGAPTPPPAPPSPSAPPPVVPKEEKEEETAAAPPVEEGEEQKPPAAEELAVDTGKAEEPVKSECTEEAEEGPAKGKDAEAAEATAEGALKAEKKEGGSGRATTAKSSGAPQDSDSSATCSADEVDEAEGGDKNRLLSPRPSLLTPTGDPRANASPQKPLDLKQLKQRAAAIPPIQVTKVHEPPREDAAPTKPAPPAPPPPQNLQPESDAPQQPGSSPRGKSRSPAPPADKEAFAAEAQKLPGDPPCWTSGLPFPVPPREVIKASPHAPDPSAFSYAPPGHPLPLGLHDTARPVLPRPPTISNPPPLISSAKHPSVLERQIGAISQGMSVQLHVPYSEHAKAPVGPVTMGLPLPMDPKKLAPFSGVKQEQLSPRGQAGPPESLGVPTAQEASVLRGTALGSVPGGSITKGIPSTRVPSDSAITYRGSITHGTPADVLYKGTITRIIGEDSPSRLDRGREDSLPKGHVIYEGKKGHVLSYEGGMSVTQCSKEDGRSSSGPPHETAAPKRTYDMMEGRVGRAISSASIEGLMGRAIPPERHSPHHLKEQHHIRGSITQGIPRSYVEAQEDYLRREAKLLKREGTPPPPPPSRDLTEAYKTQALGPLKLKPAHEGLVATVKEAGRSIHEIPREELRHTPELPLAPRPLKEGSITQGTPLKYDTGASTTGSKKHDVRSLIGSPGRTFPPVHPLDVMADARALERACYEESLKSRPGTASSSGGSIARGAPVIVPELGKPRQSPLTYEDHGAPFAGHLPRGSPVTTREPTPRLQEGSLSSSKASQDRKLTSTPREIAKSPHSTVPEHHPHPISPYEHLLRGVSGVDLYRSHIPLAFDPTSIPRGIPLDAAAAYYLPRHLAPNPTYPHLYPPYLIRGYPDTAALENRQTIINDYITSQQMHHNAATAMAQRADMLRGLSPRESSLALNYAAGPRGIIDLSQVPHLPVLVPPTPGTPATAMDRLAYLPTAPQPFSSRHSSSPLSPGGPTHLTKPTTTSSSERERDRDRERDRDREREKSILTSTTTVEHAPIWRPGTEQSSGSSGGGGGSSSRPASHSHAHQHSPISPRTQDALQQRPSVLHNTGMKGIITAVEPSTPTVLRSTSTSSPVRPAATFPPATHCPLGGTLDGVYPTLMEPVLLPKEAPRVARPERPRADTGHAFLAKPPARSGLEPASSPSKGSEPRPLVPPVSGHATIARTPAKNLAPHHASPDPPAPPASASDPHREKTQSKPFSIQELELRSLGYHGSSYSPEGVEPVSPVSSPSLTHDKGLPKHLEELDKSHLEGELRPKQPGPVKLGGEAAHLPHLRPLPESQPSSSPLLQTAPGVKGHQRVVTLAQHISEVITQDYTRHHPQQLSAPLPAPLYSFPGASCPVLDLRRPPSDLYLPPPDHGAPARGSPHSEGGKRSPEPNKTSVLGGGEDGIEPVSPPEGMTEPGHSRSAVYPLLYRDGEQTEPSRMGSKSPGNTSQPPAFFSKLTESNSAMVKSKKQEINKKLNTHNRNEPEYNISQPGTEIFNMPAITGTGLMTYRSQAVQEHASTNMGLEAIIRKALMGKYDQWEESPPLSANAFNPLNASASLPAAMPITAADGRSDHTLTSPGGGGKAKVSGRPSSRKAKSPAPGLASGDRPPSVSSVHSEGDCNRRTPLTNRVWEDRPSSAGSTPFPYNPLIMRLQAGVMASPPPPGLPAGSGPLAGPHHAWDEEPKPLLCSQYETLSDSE
Serine/threonine-protein phosphatase PP1-alpha catalytic subunit, sequence (P62136 whole entry): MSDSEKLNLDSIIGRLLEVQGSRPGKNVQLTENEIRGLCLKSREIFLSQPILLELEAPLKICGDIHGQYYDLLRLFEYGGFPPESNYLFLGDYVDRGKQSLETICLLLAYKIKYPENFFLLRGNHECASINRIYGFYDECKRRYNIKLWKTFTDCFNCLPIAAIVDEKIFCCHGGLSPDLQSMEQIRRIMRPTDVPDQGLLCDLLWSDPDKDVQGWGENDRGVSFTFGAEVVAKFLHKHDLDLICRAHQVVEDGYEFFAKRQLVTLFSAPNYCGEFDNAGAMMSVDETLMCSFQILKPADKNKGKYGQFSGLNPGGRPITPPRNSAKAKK

COC(=O)C1=C(C)N(Cc2ccccc2)C2=C(C(C)=O)C[C@@](O)(C(=O)OC)C(=O)N2C1c1ccccc1 (stereo partly specified)
AC50 (Cytochrome P450 3A4 [1]): 3.16 µM (inconclusive)
AC50 (Cytochrome P450 3A4 [2]): 3.16 µM (inconclusive)

CCOC(=O)c1sc(N2C(=O)C(O)=C(C(=O)c3ccco3)C2c2cccc([N+](=O)[O-])c2)nc1C (stereo unspecified)
IC50 (HEK293 [3]): > 20 µM (inactive)
IC50 (HEK293 [4]): > 20 µM (inactive)
EC50 (HEK293 [5]): > 20 µM (inactive)
IC50 (HEK293 [6]): > 20 µM (inactive)
IC50 [7]: > 67 µM (not active)
IC50 [8]: 11.8 µM (not active)

COc1ccc(-n2c(=S)[nH]c3c(oc4ccccc43)c2=O)cc1
IC50 [9]: 2.32 µM (active)
IC50 [10]: 4.93 µM (active)

COc1ccc(C(c2cc3c(cc2O)OCO3)N2CCCCC2)cc1 (stereo unspecified)
IC50 [11]: < 2.5 µM (not active)

O=C(Nc1nc(-c2ccc(Cl)cc2)cs1)c1ccccc1F
CC50 (Vero): > 40 µM (active)

O=C(NCCc1ccc(Cl)cc1)c1cc(-c2ccco2)nc2ccccc12
IC50 [12]: 31.1 µM (active)

COc1ccc(Oc2c(Cl)cnn(-c3cccc4ccccc34)c2=O)cc1
IC50 [13]: 8.4 µM (active)

Oc1c(Br)cc(Br)cc1/C=N/Nc1ccc(Cl)nn1
IC50 (HEK293 [3]): > 20 µM (inactive)
EC50 [14]: > 30 µM (not active)
EC50 (cells): 502 nM (active)
EC50 [15]: > 12 µM (inconclusive)
EC50 [16]: 287 nM (active)
EC50 [17]: 495 nM (active)
EC50 [18]: < 100 nM (active)
EC50 [19]: > 20 µM (inactive)
EC50 [20]: 931 nM (active)
EC50 (Streptococcus): 899 nM (active)
AC50 (INS1): 220 nM (active)
EC50 [21]: < 30 nM (active)
EC50 [22]: 24.3 µM (active)
EC50 [23]: 45.2 µM (active)
IC50 (HEK293 [4]): > 20 µM (inactive)
EC50 (HEK293 [5]): > 20 µM (inactive)
IC50 (HEK293 [6]): > 20 µM (inactive)
EC50 [24]: > 180 µM (inactive)
EC50 [25]: 249 nM (active)
IC50 (HEK293 [26]): > 20 µM (inactive)

C(=C\c1sc(Nc2ccccc2)n[n+]1-c1ccccc1)/c1ccccc1
IC50 [27]: 48.8 µM (inactive)
IC50 (Beta-galactosidase): > 66.6 µM (inactive)
